{"source": "paper PMC4775916", "about": "(Antimicrobial Agents and Chemotherapy, 2016); on IC50 VIM-4 (H224, R228): 10 min preincubation", "key": {"VIM-1 [1]": {"molecular_target": "T1, VIM-1 (Pseudomonas aeruginosa, UniProt A0A0F7KYQ8)", "T1 construct": "The N- and C- terminal residues of the mature enzymes are labelled 26; made in house", "assay": "Steady-state kinetics of β-lactam substrate hydrolysis", "type": "biochemical", "conditions": "C-terminally His6-tagged VIM-1; 50 mM HEPES pH 7.2; apparent for ampicillin and ceftazidime", "procedure": "(§1) The hydrolysis of a representative panel of β-lactam substrates was monitored at their respective absorbance wavelengths. The wavelengths and extinction coefficients used were previously described ([34]). The assays were carried out using 50 mM HEPES buffer (pH 7.2) supplemented with 1 μg/ml bovine serum albumin (BSA), 1 μM ZnSO4, and 0.01% Triton X-100. In the case of VIM-1, C-terminally His6-tagged VIM-1 was used for kinetic analyses. Note that no differences were observed between the activities of untagged VIM-1 and C-terminally His6-tagged VIM-1 for the selected antibiotics (data not shown). The initial rates were obtained from the changes in absorbance at various substrate concentrations. Steady-state kinetic parameters (Km and kcat) were determined by fitting the initial velocity data to the Michaelis-Menten equation using GraphPad Prism 5.01 software (see Table S4 in the supplemental material)."}, "VIM-5 [2]": {"molecular_target": "T2, VIM-5 (Pseudomonas aeruginosa, UniProt A0A0F7KYQ8, A128K/E202A/H201L/K257T/S205R)", "T2 construct": "His6 with HRV3C cleavage site (pET-28a) (N, cleaved yes); made in house; host or cells: E. coli BL21(DE3)", "assay": "Steady-state kinetics of β-lactam substrate hydrolysis", "type": "biochemical", "conditions": "for kcat VIM-5 / Km: 50 mM HEPES pH 7.2, apparent for ampicillin and ceftazidime; for Km: read-out: Mean Km ± SD VIM-5", "procedure": "as §1"}, "VIM-38 [3]": {"molecular_target": "T3, VIM-38 (Pseudomonas aeruginosa, UniProt A0A0F7KYQ8, A128K/A265V/E202A/H201L/K257T/S205R)", "T3 construct": "The N- and C- terminal residues of the mature enzymes are labelled 26; His6 with HRV3C cleavage site (pET-28a) (N, cleaved yes); made in house; host or cells: E. coli BL21(DE3)", "assay": "Steady-state kinetics of β-lactam substrate hydrolysis", "type": "biochemical", "conditions": "50 mM HEPES pH 7.2, apparent for ampicillin and ceftazidime; for Km: read-out: Mean Km ± SD VIM-38", "procedure": "as §1"}, "VIM-1 [4]": {"molecular_target": "T1, VIM-1", "conditions": "previous studies ref Franceschini et al. (4), cited from earlier work"}, "VIM-5 [5]": {"system": "VIM-5", "design": "method as in Garcar et al. (6)", "conditions": "previous studies ref Garcar et al. (6), cited from earlier work"}, "VIM-2 [6]": {"molecular_target": "T4, VIM-2 (Escherichia coli, UniProt Q5U7L7)", "T4 construct": "His6 (N, cleaved yes); made in house", "type": "biochemical", "conditions": "50 mM HEPES pH 7.2; apparent for ampicillin and ceftazidime", "procedure": "as §1"}, "VIM-2 [7]": {"system": "VIM-2", "design": "method as in Poirel et al. (5)", "conditions": "previous studies ref Poirel et al. (5), cited from earlier work"}, "VIM-4": {"molecular_target": "T5, VIM-4 (Pseudomonas aeruginosa, UniProt A0A0F7KYQ8, S205R)", "T5 construct": "His6 (N, cleaved yes); made in house", "assay": "Inhibition of enzyme-mediated nitrocefin hydrolysis", "type": "biochemical", "conditions": "read-out: IC50 VIM-4 (H224, R228)", "procedure": "(§2) Inhibitors were prepared as reported previously ([36], [41]). Enzyme-mediated hydrolysis of nitrocefin was monitored by determining the changes in absorbance at 495 nm, as previously described ([36], [37]). Residual activities were first determined at a 100 μM inhibitor concentration. […] The residual activities were obtained at increasing inhibitor concentrations (0.2 to 2,000 μM); the data were analyzed using GraphPad Prism 5.01 software."}, "VIM-1 [8]": {"molecular_target": "T1, VIM-1", "assay": "Inhibition of enzyme-mediated nitrocefin hydrolysis", "type": "biochemical", "conditions": "read-out: IC50 VIM-1 (H224, S228)", "procedure": "as §2"}, "VIM-5 [9]": {"molecular_target": "T2, VIM-5", "assay": "Inhibition of enzyme-mediated nitrocefin hydrolysis", "type": "biochemical", "procedure": "as §2"}, "VIM-2 [10]": {"molecular_target": "T4, VIM-2", "assay": "Inhibition of enzyme-mediated nitrocefin hydrolysis", "type": "biochemical", "conditions": "read-out: IC50 VIM-2 (Y224, R228)", "procedure": "as §2"}, "VIM-38 [11]": {"molecular_target": "T3, VIM-38", "assay": "Inhibition of enzyme-mediated nitrocefin hydrolysis", "type": "biochemical", "procedure": "as §2"}, "[12]": {"system": "O=C(Cc1cccs1)N[C@@H]1C(=O)N2C(C(=O)O)=C(/C=C/c3ccc([N+](=O)[O-])cc3[N+](=O)[O-])CS[C@H]12", "assay": "Nitrocefin hydrolysis kinetics before thermal denaturation and after refolding", "type": "biochemical", "conditions": "other: nitrocefin hydrolysis", "procedure": "Circular dichroism (CD) analyses were carried out using a Chirascan CD spectrophotometer (Applied Photophysics) equipped with a Peltier temperature-controlled cell holder. CD measurements were collected in the range of 185 to 260 nm; spectra were baseline corrected and smoothed using a Savitzky-Golay filter. Data were normalized at 207 nm to account for differences in protein concentrations ([38]), and the estimation of secondary structure content was performed with Dichro Web ([39]) using the CONTIN Analysis Programme (reference set 6) ([40]). Melting temperatures (Tm) of the recombinant enzymes were determined by monitoring temperature-induced changes in the CD signal at 222 nm. The temperature was increased by 1°C per min, and the CD signal was recorded at temperatures ranging from 25°C to 92°C. The samples were then cooled from 92°C to 25°C at the same rate, and a CD spectrum of the refolded proteins was determined. The activity of the enzymes was recorded before thermal denaturation and after refolding by monitoring nitrocefin hydrolysis. The thermal denaturation data were fitted to a Boltzmann sigmoidal curve by using GraphPad Prism 5.0 software. CD spectra and thermal denaturation curves are shown in Fig. 2 and in Tables S2 and S3 in the supplemental material."}, "[13]": {"system": "O=C(Cc1cccs1)N[C@@H]1C(=O)N2C(C(=O)O)=C(/C=C/c3ccc([N+](=O)[O-])cc3[N+](=O)[O-])CS[C@H]12", "assay": "Steady-state kinetics of β-lactam substrate hydrolysis", "type": "biochemical", "conditions": "other: C-terminally His6-tagged VIM-1, 50 mM HEPES pH 7.2, apparent for ampicillin and ceftazidime", "procedure": "as §1"}, "[14]": {"system": "CC(C)(O/N=C(\\C(=O)N[C@@H]1C(=O)N2C(C(=O)[O-])=C(C[n+]3ccccc3)CS[C@H]12)c1csc(N)n1)C(=O)O", "assay": "Steady-state kinetics of β-lactam substrate hydrolysis", "type": "biochemical", "conditions": "other: C-terminally His6-tagged VIM-1, 50 mM HEPES pH 7.2, apparent for ampicillin and ceftazidime", "procedure": "as §1"}, "[15]": {"system": "CC(=O)OCC1=C(C(=O)O)N2C(=O)[C@@H](NC(=O)Cc3cccs3)[C@H]2SC1", "assay": "Steady-state kinetics of β-lactam substrate hydrolysis", "type": "biochemical", "conditions": "other: C-terminally His6-tagged VIM-1, 50 mM HEPES pH 7.2, apparent for ampicillin and ceftazidime", "procedure": "as §1"}, "[16]": {"system": "C[C@@H](O)[C@H]1C(=O)N2C(C(=O)O)=C(S[C@@H]3CN[C@H](C(=O)N(C)C)C3)[C@H](C)[C@H]12", "assay": "Steady-state kinetics of β-lactam substrate hydrolysis", "type": "biochemical", "conditions": "other: C-terminally His6-tagged VIM-1, 50 mM HEPES pH 7.2, apparent for ampicillin and ceftazidime", "procedure": "as §1"}, "[17]": {"system": "CO[C@@]1(NC(=O)Cc2cccs2)C(=O)N2C(C(=O)O)=C(COC(N)=O)CS[C@@H]21", "assay": "Steady-state kinetics of β-lactam substrate hydrolysis", "type": "biochemical", "conditions": "other: C-terminally His6-tagged VIM-1, 50 mM HEPES pH 7.2, apparent for ampicillin and ceftazidime", "procedure": "as §1"}, "[18]": {"system": "C[C@@H](O)[C@H]1C(=O)N2C(C(=O)O)=C(SCCN=CN)C[C@H]12", "assay": "Steady-state kinetics of β-lactam substrate hydrolysis", "type": "biochemical", "conditions": "other: C-terminally His6-tagged VIM-1, 50 mM HEPES pH 7.2, apparent for ampicillin and ceftazidime", "procedure": "as §1"}}}
{"molecule": "CC(C)(O/N=C(\\C(=O)N[C@@H]1C(=O)N2C(C(=O)[O-])=C(C[n+]3ccccc3)CS[C@H]12)c1csc(N)n1)C(=O)O", "note": "[Ceftazidime]", "values": [{"measurement": "kcat VIM-1", "setting": "VIM-1 [1]", "value": 3, "unit": "s⁻¹"}, {"measurement": "kcat VIM-5", "setting": "VIM-5 [2]", "value": 4, "unit": "s⁻¹"}, {"measurement": "Km", "setting": "VIM-5 [2]", "value": "340 ± 80", "unit": "µM"}, {"measurement": "fold-higher hydrolysis efficiency by VIM-5 than previously reported", "setting": "VIM-5 [2]; this study versus previously reported ([26])", "value": 10, "unit": "fold"}, {"measurement": "kcat VIM-38", "setting": "VIM-38 [3]", "value": 4, "unit": "s⁻¹"}, {"measurement": "Km", "setting": "VIM-38 [3]", "value": "430 ± 140", "unit": "µM"}, {"measurement": "kcat VIM-1 (previous study)", "setting": "VIM-1 [4]", "value": 60, "unit": "s⁻¹"}, {"measurement": "Km", "setting": "VIM-1 [4]; read-out: Km VIM-1 (previous study)", "value": 794, "unit": "µM"}, {"measurement": "kcat VIM-5 (previous study)", "setting": "VIM-5 [5]", "value": 0.2, "unit": "s⁻¹"}, {"measurement": "Km", "setting": "VIM-5 [5]; read-out: Km VIM-5 (previous study)", "value": 149, "unit": "µM"}, {"measurement": "kcat VIM-2", "setting": "VIM-2 [6]", "value": 2, "unit": "s⁻¹"}, {"measurement": "kcat VIM-2 (previous study)", "setting": "VIM-2 [7]", "value": 89, "unit": "s⁻¹"}, {"measurement": "Km", "setting": "VIM-2 [7]; read-out: Km VIM-2 (previous study)", "value": 98, "unit": "µM"}]}
{"molecule": "O=C(N[C@H](Cc1c[nH]c2ccccc12)C(=O)O)c1ncccc1O", "note": "[compound 3]", "values": [{"measurement": "IC50", "setting": "VIM-4", "value": 125, "unit": "µM"}, {"measurement": "IC50", "setting": "VIM-1 [8]", "value": 50, "unit": "µM"}, {"measurement": "IC50", "setting": "VIM-5 [9]", "value": 50, "unit": "µM"}, {"measurement": "IC50", "setting": "VIM-2 [10]", "value": 100, "unit": "µM"}, {"measurement": "IC50", "setting": "VIM-38 [11]", "value": 50, "unit": "µM"}]}
{"molecule": "CC(=O)OCC1=C(C(=O)O)N2C(=O)[C@@H](NC(=O)Cc3cccs3)[C@H]2SC1", "note": "[Cephalothin]", "values": [{"measurement": "kcat VIM-5", "setting": "VIM-5 [2]", "value": 200, "unit": "s⁻¹"}, {"measurement": "Km", "setting": "VIM-5 [2]", "value": "100 ± 8", "unit": "µM"}, {"measurement": "kcat VIM-38", "setting": "VIM-38 [3]", "value": 120, "unit": "s⁻¹"}, {"measurement": "Km", "setting": "VIM-38 [3]", "value": "60 ± 8", "unit": "µM"}]}
{"molecule": "VIM-1 (Pseudomonas aeruginosa PAO1)", "values": [{"measurement": "Km", "setting": "[12]; after refolding", "value": "26 ± 3", "unit": "µM"}, {"measurement": "Km", "setting": "[12]; pre-heating", "value": "20 ± 2", "unit": "µM"}, {"measurement": "kcat", "setting": "[12]; pre-heating", "value": 7, "unit": "s⁻¹"}, {"measurement": "kcat/Km", "setting": "[12]; pre-heating", "value": 300000, "unit": "M⁻¹ s⁻¹"}, {"measurement": "Km", "setting": "[13]", "value": "15 ± 1", "unit": "µM"}, {"measurement": "kcat", "setting": "[13]", "value": 130, "unit": "s⁻¹"}, {"measurement": "kcat/Km", "setting": "[13]", "value": "8.7e+06", "unit": "M⁻¹ s⁻¹"}, {"measurement": "Km", "setting": "[14]", "value": "180 ± 60", "unit": "µM"}, {"measurement": "kcat", "setting": "[14]", "value": 3, "unit": "s⁻¹"}, {"measurement": "kcat/Km", "setting": "[14]", "value": 20000, "unit": "M⁻¹ s⁻¹"}, {"measurement": "Km", "setting": "[15]", "value": "140 ± 10", "unit": "µM"}, {"measurement": "kcat", "setting": "[15]", "value": 450, "unit": "s⁻¹"}, {"measurement": "kcat/Km", "setting": "[15]", "value": "3.2e+06", "unit": "M⁻¹ s⁻¹"}, {"measurement": "Km", "setting": "[16]", "value": "130 ± 20", "unit": "µM"}, {"measurement": "kcat", "setting": "[16]", "value": 50, "unit": "s⁻¹"}, {"measurement": "kcat/Km", "setting": "[16]", "value": 400000, "unit": "M⁻¹ s⁻¹"}, {"measurement": "Km", "setting": "[17]", "value": "170 ± 50", "unit": "µM"}, {"measurement": "kcat", "setting": "[17]", "value": 30, "unit": "s⁻¹"}, {"measurement": "kcat/Km", "setting": "[17]", "value": 200000, "unit": "M⁻¹ s⁻¹"}, {"measurement": "Km", "setting": "[18]", "value": "60 ± 10", "unit": "µM"}, {"measurement": "kcat", "setting": "[18]", "value": 30, "unit": "s⁻¹"}, {"measurement": "kcat/Km", "setting": "[18]", "value": 500000, "unit": "M⁻¹ s⁻¹"}]}
